Experimental data published in patent US12473304B2, “Heterocyclic PAD4 inhibitors” (BRISTOL-MYERS SQUIBB COMPANY, priority 2020, dated 2025).

molecular target: human PAD4 (hPAD4) (Homo sapiens (Human), UniProt Q9UM07); experiment: RFMS Human PAD4 Functional Assay 1; assay type: biochemical; conditions: RFMS assay 1; 5 nM hPAD4, 250 μM BAEE substrate, 50 μM calcium, 37° C.
Outline: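 Recombinant hPAD4 (5 nM) was preincubated with compound (top 50 μM, 0.5% DMSO) for 30 min at 37 °C, then reacted with 250 μM BAEE for 90 min at 37 °C in pH 7.5 HEPES buffer with 50 μM calcium and 5 μM TPEN. Product was derivatized with phenyl glyoxal and quantified by RapidFire MS.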

human PAD4 (hPAD4), sequence (Q9UM07 whole entry): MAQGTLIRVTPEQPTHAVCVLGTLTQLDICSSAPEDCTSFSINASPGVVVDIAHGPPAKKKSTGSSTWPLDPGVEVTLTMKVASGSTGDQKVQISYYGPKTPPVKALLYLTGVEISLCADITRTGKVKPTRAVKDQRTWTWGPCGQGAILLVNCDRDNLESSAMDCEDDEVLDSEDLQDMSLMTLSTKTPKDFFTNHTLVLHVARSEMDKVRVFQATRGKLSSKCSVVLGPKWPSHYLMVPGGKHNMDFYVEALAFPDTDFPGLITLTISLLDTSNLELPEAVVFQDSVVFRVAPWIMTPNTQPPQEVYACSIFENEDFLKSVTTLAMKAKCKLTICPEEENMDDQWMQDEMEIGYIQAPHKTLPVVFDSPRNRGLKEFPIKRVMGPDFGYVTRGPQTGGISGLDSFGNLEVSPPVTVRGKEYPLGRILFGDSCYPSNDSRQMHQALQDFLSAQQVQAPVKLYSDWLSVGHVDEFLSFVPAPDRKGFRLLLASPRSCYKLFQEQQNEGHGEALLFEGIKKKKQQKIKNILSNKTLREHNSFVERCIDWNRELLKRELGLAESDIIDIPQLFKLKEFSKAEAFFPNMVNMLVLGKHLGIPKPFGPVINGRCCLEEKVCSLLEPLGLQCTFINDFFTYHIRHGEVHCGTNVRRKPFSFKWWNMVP

IC50 | SMILES
2.72 µM | Cc1c(-c2cc3ccc(-c4ccc5[nH]ncc5c4)nc3n2CC2CC2)nn2cc(C(=O)N3C[C@H](N)C[C@@H](F)C3)cc(Cl)c12 [Example 290, (3R,5R)-1-{4-Chloro-2-[1-(cyclopropylmethyl)-6-(1H-indazol-5-yl)-1H-pyrrolo[2,3-b]pyridin-2-yl]-3-methylpyrazolo[1,5-a]pyridine-6-carbonyl}-5-fluoropiperidin-3-amine]
5.89 µM | Cc1c(-c2cc3ccc(Cl)nc3n2CC2CC2)nn2cc(C(=O)N3CCC[C@@H](N)C3)cc(Cl)c12 [Example 291, (3R)-1-{4-Chloro-2-[6-chloro-1-(cyclopropylmethyl)-1H-pyrrolo[2,3-b]pyridin-2-yl]-3-methylpyrazolo[1,5-a]pyridine-6-carbonyl}piperidin-3-amine]
2.35 µM | Cc1c(-c2cc3ccc(-c4ccc5[nH]ncc5c4)nc3n2CC2CC2)nn2cc(C(=O)N3CCC[C@@H](N)C3)cc(Cl)c12 [Example 292, (3R)-1-{4-chloro-2-[1-(Cyclopropylmethyl)-6-(1H-indazol-5-yl)-1H-pyrrolo[2,3-b]pyridin-2-yl]-3-methylpyrazolo[1,5-a]pyridine-6-carbonyl}piperidin-3-amine]
0.2 µM | Cc1c(-c2cc3ccc(-c4ccc(C(N)=O)cc4Cl)cc3n2CC2CC2)nn2cc(C(=O)N3CC4CCC3[C@@H]4N)cc(F)c12 (stereo partly drawn) [Example 294, 4-(2-{6-[(7R)-7-Amino-2-azabicyclo[2.2.1]heptane-2-carbonyl]-4-fluoro-3-methylpyrazolo[1,5-a]pyridin-2-yl}-1-(cyclopropylmethyl)-1H-indol-6-yl)-3-chlorobenzamide]
0.02 µM | Cc1c(-c2cc3ccc(-c4ccn5c(C)nnc5c4)cc3n2CC2CC2)nn2cc(C(=O)N3CC4CCC3[C@@H]4N)cc(F)c12 (stereo partly drawn) [Example 295, (7R)-2-{2-[1-(Cyclopropylmethyl)-6-{3-methyl-[1,2,4]triazolo[4,3-a]pyridin-7-yl}-1H-indol-2-yl]-4-fluoro-3-methylpyrazolo[1,5-a]pyridine-6-carbonyl}-2-azabicyclo[2.2.1]heptan-7-amine]
0.85 µM | COC1CN(c2ccc3cc(-c4nn5cc(C(=O)N6CC7CCC6[C@@H]7N)cc(F)c5c4C)n(CC4CC4)c3c2)C1 (stereo partly drawn) [Example 296, (7R)-2-{2-[1-(Cyclopropylmethyl)-6-(3-methoxyazetidin-1-yl)-1H-indol-2-yl]-4-fluoro-3-methylpyrazolo[1,5-a]pyridine-6-carbonyl}-2-azabicyclo[2.2.1]heptan-7-amine]
0.19 µM | Cc1c(-c2cc3ccc(-c4cccc5[nH]nc(F)c45)nc3n2CC2CC2)nn2cc(C(=O)N3CC4CCC3[C@@H]4N)ccc12 (stereo partly drawn) [Example 297, (7R)-2-{2-[1-(Cyclopropylmethyl)-6-(3-fluoro-1H-indazol-4-yl)-1H-pyrrolo[2,3-b]pyridin-2-yl]-3-methylpyrazolo[1,5-a]pyridine-6-carbonyl}-2-azabicyclo[2.2.1]heptan-7-amine]
0.21 µM | Cc1c(-c2cc3ccc(-c4ccc5cn[nH]c5c4)nc3n2CC2CC2)nn2cc(C(=O)N3CC4CCC3[C@@H]4N)ccc12 (stereo partly drawn) [Example 298, (7R)-2-{2-[1-(Cyclopropylmethyl)-6-(1H-indazol-6-yl)-1H-pyrrolo[2,3-b]pyridin-2-yl]-3-methylpyrazolo[1,5-a]pyridine-6-carbonyl}-2-azabicyclo[2.2.1]heptan-7-amine]
0.02 µM | Cc1c(-c2cc3ccc(-c4cccc5[nH]ncc45)nc3n2CC2CC2)nn2cc(C(=O)N3CC4CCC3[C@@H]4N)ccc12 (stereo partly drawn) [Example 299, (7R)-2-{2-[1-(Cyclopropylmethyl)-6-(1H-indazol-4-yl)-1H-pyrrolo[2,3-b]pyridin-2-yl]-3-methylpyrazolo[1,5-a]pyridine-6-carbonyl}-2-azabicyclo[2.2.1]heptan-7-amine]
0.1 µM | Cc1c(-c2cc3ccc(-c4ccc5[nH]ncc5c4)nc3n2CC2CC2)nn2cc(C(=O)N3CC4CCC3[C@@H]4N)ccc12 (stereo partly drawn) [Example 300, (7R)-2-{2-[1-(Cyclopropylmethyl)-6-(1H-indazol-5-yl)-1H-pyrrolo[2,3-b]pyridin-2-yl]-3-methylpyrazolo[1,5-a]pyridine-6-carbonyl}-2-azabicyclo[2.2.1]heptan-7-amine]
0.03 µM | Cc1c(O)cccc1-c1ccc2cc(-c3nn4cc(C(=O)N5CC6CCC5[C@@H]6N)ccc4c3C)n(CC3CC3)c2n1 (stereo partly drawn) [Example 301, 3-(2-{6-[(7R)-7-Amino-2-azabicyclo[2.2.1]heptane-2-carbonyl]-3-methylpyrazolo[1,5-a]pyridin-2-yl}-1-(cyclopropylmethyl)-1H-pyrrolo[2,3-b]pyridin-6-yl)-2-methylphenol]
0.12 µM | Cc1c(-c2cc3ccc(-c4ccccc4N4CCNC4=O)nc3n2CC2CC2)nn2cc(C(=O)N3CC4CCC3[C@@H]4N)ccc12 (stereo partly drawn) [Example 302, 1-[2-(2-{6-[(7R)-7-Amino-2-azabicyclo[2.2.1]heptane-2-carbonyl]-3-methylpyrazolo[1,5-a]pyridin-2-yl}-1-(cyclopropylmethyl)-1H-pyrrolo[2,3-b]pyridin-6-yl)phenyl]imidazolidin-2-one]
0.24 µM | COc1cc(-c2ccc3cc(-c4nn5cc(C(=O)N6CC7CCC6[C@@H]7N)ccc5c4C)n(CC4CC4)c3n2)ccc1C(N)=O (stereo partly drawn) [Example 303, 4-(2-{6-[(7R)-7-Amino-2-azabicyclo[2.2.1]heptane-2-carbonyl]-3-methylpyrazolo[1,5-a]pyridin-2-yl}-1-(cyclopropylmethyl)-1H-pyrrolo[2,3-b]pyridin-6-yl)-2-methoxybenzamide]
0.01 µM | Cc1c(-c2cc3ccc(-c4ccc(N5CCCC5=O)cc4)nc3n2CC2CC2)nn2cc(C(=O)N3CC4CCC3[C@@H]4N)ccc12 (stereo partly drawn) [Example 304, 1-[4-(2-{6-[(7R)-7-Amino-2-azabicyclo[2.2.1]heptane-2-carbonyl]-3-methylpyrazolo[1,5-a]pyridin-2-yl}-1-(cyclopropylmethyl)-1H-pyrrolo[2,3-b]pyridin-6-yl)phenyl]pyrrolidin-2-one]
0.04 µM | Cc1cc(C(N)=O)c(F)cc1-c1ccc2cc(-c3nn4cc(C(=O)N5CC6CCC5[C@@H]6N)ccc4c3C)n(CC3CC3)c2n1 (stereo partly drawn) [Example 305, 4-(2-{6-[(7R)-7-Amino-2-azabicyclo[2.2.1]heptane-2-carbonyl]-3-methylpyrazolo[1,5-a]pyridin-2-yl}-1-(cyclopropylmethyl)-1H-pyrrolo[2,3-b]pyridin-6-yl)-2-fluoro-5-methylbenzamide]
0.03 µM | Cc1c(-c2cc3ccc(-c4ccc5cn[nH]c5c4F)nc3n2CC2CC2)nn2cc(C(=O)N3CC4CCC3[C@@H]4N)ccc12 (stereo partly drawn) [Example 306, (7R)-2-{2-[1-(Cyclopropylmethyl)-6-(7-fluoro-1H-indazol-6-yl)-1H-pyrrolo[2,3-b]pyridin-2-yl]-3-methylpyrazolo[1,5-a]pyridine-6-carbonyl}-2-azabicyclo[2.2.1]heptan-7-amine]
0.07 µM | CNC(=O)c1ccc(-c2ccc3cc(-c4nn5cc(C(=O)N6CC7CCC6[C@@H]7N)ccc5c4C)n(CC4CC4)c3n2)cn1 (stereo partly drawn) [Example 307, 5-(2-{6-[(7R)-7-Amino-2-azabicyclo[2.2.1]heptane-2-carbonyl]-3-methylpyrazolo[1,5-a]pyridin-2-yl}-1-(cyclopropylmethyl)-1H-pyrrolo[2,3-b]pyridin-6-yl)-N-methylpyridine-2-carboxamide]
0.05 µM | COC(=O)Nc1ccc(-c2ccc3cc(-c4nn5cc(C(=O)N6CC7CCC6[C@@H]7N)ccc5c4C)n(CC4CC4)c3n2)cn1 (stereo partly drawn) [Example 308, Methyl N-[5-(2-{6-[(7R)-7-amino-2-azabicyclo[2.2.1]heptane-2-carbonyl]-3-methylpyrazolo[1,5-a]pyridin-2-yl}-1-(cyclopropylmethyl)-1H-pyrrolo[2,3-b]pyridin-6-yl)pyridin-2-yl]carbamate]
0.4 µM | Cc1c(-c2cc3ccc(-c4ccc5[nH]ncc5c4)nc3n2CC2CC2)nn2cc(C(=O)N3CCC[C@@H](N)C3)ccc12 [Example 309, (3R)-1-{2-[1-(Cyclopropylmethyl)-6-(1H-indazol-5-yl)-1H-pyrrolo[2,3-b]pyridin-2-yl]-3-methylpyrazolo[1,5-a]pyridine-6-carbonyl}piperidin-3-amine]
0.4 µM | Cc1c(-c2cc3ccc(-c4ccc5cn[nH]c5c4)nc3n2CC2CC2)nn2cc(C(=O)N3CCC[C@@H](N)C3)ccc12 [Example 310, (3R)-1-{2-[1-(Cyclopropylmethyl)-6-(1H-indazol-6-yl)-1H-pyrrolo[2,3-b]pyridin-2-yl]-3-methylpyrazolo[1,5-a]pyridine-6-carbonyl}piperidin-3-amine]
0.21 µM | Cc1c(-c2cc3ccc(-c4cccc5[nH]ncc45)nc3n2CC2CC2)nn2cc(C(=O)N3CCC[C@@H](N)C3)ccc12 [Example 311, (3R)-1-{2-[1-(Cyclopropylmethyl)-6-(1H-indazol-4-yl)-1H-pyrrolo[2,3-b]pyridin-2-yl]-3-methylpyrazolo[1,5-a]pyridine-6-carbonyl}piperidin-3-amine]
0.06 µM | Cc1c(-c2ccc3cc(-c4nn5cc(C(=O)N6CCC[C@@H](N)C6)ccc5c4C)n(CC4CC4)c3n2)cc(F)c2[nH]c(=O)ccc12 [Example 312, 6-(2-{6-[(3R)-3-Aminopiperidine-1-carbonyl]-3-methylpyrazolo[1,5-a]pyridin-2-yl}-1-(cyclopropylmethyl)-1H-pyrrolo[2,3-b]pyridin-6-yl)-8-fluoro-5-methyl-1,2-dihydroquinolin-2-one]
0.1 µM | Cc1c(-c2cc3ccc(-c4cccc(O)c4Cl)nc3n2CC2CC2)nn2cc(C(=O)N3CCC[C@@H](N)C3)ccc12 [Example 313, 3-(2-{6-[(3R)-3-Aminopiperidine-1-carbonyl]-3-methylpyrazolo[1,5-a]pyridin-2-yl}-1-(cyclopropylmethyl)-1H-pyrrolo[2,3-b]pyridin-6-yl)-2-chlorophenol]
0.04 µM | Cc1c(-c2cc3ccc(-c4cccc(O)c4F)nc3n2CC2CC2)nn2cc(C(=O)N3CCC[C@@H](N)C3)ccc12 [Example 314, 3-(2-{6-[(3R)-3-Aminopiperidine-1-carbonyl]-3-methylpyrazolo[1,5-a]pyridin-2-yl}-1-(cyclopropylmethyl)-1H-pyrrolo[2,3-b]pyridin-6-yl)-2-fluorophenol]
